US12319967B2, “Methods and compositions for diagnosing and treating prostate cancer based on long noncoding RNA overlapping the LCK gene that regulates prostate cancer cell growth” (University of Virginia Patent Foundation, priority 2019, dated 2025)

Tested on: LNCaP, C4-2, and Rv1 cells
Test: CyQuant growth assay 7 days after viral transduction
Type: cell-based, human
Conditions: 0.05 nM R1881; LNCaP, C4-2, and Rv1 cells; day 7
Excerpt: FIG. 5A illustrates the gene structure of LCK and location of each shRNA targeting LCK. MISSION shRNAs targeting human LCK (NM_005356) and the pLKO vector control were purchased from ThermoFisher. Each shRNA was validated for efficiency of LCK or HULLK knockdown in Jurkat and PCa cells by qPCR. (C) The results of CyQuant Assay measuring DNA content as a surrogate for cell number 7 days after shRNA transduction is shown in FIG. 5C. Growth was compared to untreated empty vector control and the values were averaged across biological replicates. Error bars represent standard error of the mean. The relative effect of four independent shRNAs on cell growth in LNCaP, C42, and Rv1 cells in the absence or presence of 0.05 nM R1881, n=3. FIG. 5D plots the data for the relative effect of HULLK overexpression on cell growth in LNCaP, C42, and Rv1 cells in the absence or presence of 0.05 nM R1881, n=3. Statistical analysis was performed using ANOVA and Tukey test.
CyQuant Growth Assays: Assay was performed as previously described (18). Briefly, shRNA or pLKO control virus was added to 1 μg/ml fibronectin-coated 96 well plates. Cells were plated in RPMI-1640 plus 5% CSS with vehicle, 0-0.05 nM R1881, and/or 10 μM Enzalutamide (Selleck Chemicals). Quantification was performed on Day 7 using a BioTek Synergy 2 plate reader.
To explore the functional role of HULLK in PCa, the effects of HULLK knockdown on PCa cell growth was examined. LNCaP, C4-2, and Rv1 cells were transduced with lentiviral particles expressing four independent shRNAs specific for LCK or pLKO empty vector control in the presence or absence of 0.05 nM R1881. Two shRNAs were targeting the carboxy-terminal of LCK (shLCK-3 and shLCK-4) and should decrease HULLK levels; and two shRNAs were directed toward the amino-terminal (shLCK-1 and shLCK-2) and should not affect HULLK expression (FIG. 5A). […] As a control, all four shRNAs efficiently knocked LCK down 60-90% in Jurkat cells. Seven days following viral transduction, cellular growth was measured using CyQuant, which uses DNA content as a surrogate for cell number. In the absence of hormone, the four shRNAs had no dramatic effects on growth in LNCaP or C4-2 cells (FIG. 5C).
The complement experiment of evaluating the effects of overexpressing HULLK on cell growth was also performed. LNCaP, C4-2, and Rv1 cells were transduced with lentivirus expressing either vector or HULLK constructs in the presence or absence of 0.05 nM R1881, and proliferation was calculated seven days following viral transduction.

C[C@]1(O)CC[C@H]2[C@@H]3CCC4=CC(=O)CCC4=C3C=C[C@@]21C [R1881]
cell growth of vector-expressing control cells exposed to R1881: expected increase in cell growth
